{"source": "patent US20210000750A1", "about": "“ENGINEERED NANOVESICLES AS CHECKPOINT BLOCKADE FOR CANCER IMMUNOTHERAPY” (NORTH CAROLINA STATE UNIVERSITY, priority 2018, published 2021)", "key": {"B16F10 melanoma tumor": {"test_system": "B16F10 melanoma tumor", "test": "In vivo anti-tumor efficacy study of NVs", "parameters": "species or system C57BL/6 mice", "settings": "seven-group study, every 3 days for five cycles", "procedure": "Female C57BL/6 mice were purchased from Jackson Lab (USA). All mouse studies were performed in the context of an animal protocol approved by the Institutional Animal Care and Use Committee at North Carolina State University and University of North Carolina at Chapel Hill. Mice were weighed and randomly divided into different groups. 5 d after 1×10^6 B16F10 tumor cells subcutaneously transplanted into the abdomen of mice (the tumor reaches 40-50 mm^3), PBS, Free nanovesicles (25 mg/kg), PD-1 nanovesicles (25 mg/kg), 1-MT (2.5 mg/kg), 1-MT loaded PD-1 nanovesicles (25 mg/kg), anyi-PD-L1 antibody (2 mg/kg) were administered into mice by tail-vein injection. Tumor incidences were monitored by physical examination and sizes were also measured by digital caliper over time. Tumors were measured by using a vernier calipers and the volume (V) was calculated to be V=d^2×D/2, where d is the shortest and the D is longest diameter of the tumor in mm respectively. To assess potential toxicities, mice were monitored daily for weight loss. For survival assays, the experiments were performed separately.\nBioluminescence images were collected with a Xenogen IVIS Spectrum Imaging System. Living Image software (Xenogen) was used to acquire the data 10 min after intraperitoneal injection of d-luciferin (Pierce) in DPBS (15 mg/mL) into animals (10 μL/g of body weight)."}, "[1]": {"test_system": "B16F10 melanoma residual tumor", "test": "In vivo anti-tumor efficacy, incomplete-tumor-resection model", "parameters": "species or system C57BL/6 mice", "settings": "five-group cyclophosphamide study", "source_text": "(§1) B16F10 luciferase-tagged B16F10 (1×10^6) melanoma tumor cells were transplanted into the right flank of C57BL/6 mice. Eight days after tumor inoculation, the tumors volume reach around ˜150 mm^3. These tumors were then resected, leaving about 15 mm^3 (10%) tumor volume to mimic the residual tumors in the surgical bed. Briefly, animals were anesthetized in an induction chamber using isoflurane (up to 5% for induction; 1-3% for maintenance), and anaesthesia was maintained via a nose cone. The tumor area was clipped and aseptically prepped. Sterile instruments were used to remove approximately 90% of the tumor. The wound was closed using an Autoclip wound closing system. The mice were randomly divided into several groups of eight mice (n=8) as indicated. The mice firstly were intravenously injected with different treatment formulations: PBS, free platelets […], PD-1 platelets (˜2×10^8), cyclophosphamide (20 mg/kg), cyclophosphamide loaded free platelets (˜2×10^8) or cyclophosphamide loaded PD-1 platelets (˜2×10^8). Immediately after the injection, the surgery was carried out within 10 min one mouse by one mouse. The tumor burden was monitored via the bioluminescence of the cancer cells."}, "CD8^+ TILs": {"test_system": "CD8^+ TILs", "assay_type": "in vivo, C57BL/6 mice", "settings": "five-group cyclophosphamide study", "procedure": "Tumors were dissected from the mice and snap frozen in optimal cutting medium (O.C.T.). Several micrometer sections were cut using a cryotome and mounted on slides. The frozen tumor sections were incubated in PBS for 15 min to remove the embedding medium. The specimens were blocked with the buffer containing 3% BSA. Subsequently, the specimens incubated with CD4 and CD8 primary antibodies (1:50 in 3% BSA) overnight and then washed three times with PBS for 5 min each. After that the specimens were incubated with TRITC secondary antibody (KPL) diluted in 3% BSA at room temperature in the dark for 1 h. Finally, the nucleus was stained with DAPI, and the tissue was washed three times with PBS for 5 min each. Confocal microscopy was performed on a FLUO-VIEW laser scanning confocal microscope […] in sequential scanning mode using a 40×objective."}, "Tregs": {"test_system": "Tregs", "assay_type": "in vivo, C57BL/6 mice", "settings": "five-group cyclophosphamide study"}, "[2]": {"settings": "five-group cyclophosphamide study", "source_text": "as §1"}}, "data": [{"smiles": "Cn1cc(C[C@H](N)C(=O)O)c2ccccc21", "note": "[1-MT, 1-methyl-tryptophan]", "values": [{"measurement": "suppression of tumor growth", "setting": "B16F10 melanoma tumor", "value": "limited suppression of tumor growth"}]}, {"smiles": "O=P1(N(CCCl)CCCl)NCCCO1", "note": "(centres unmarked) [cyclophosphamide]", "values": [{"measurement": "tumor progression", "setting": "[1]", "value": "limited results"}, {"measurement": "frequency of Ki67+ T cells", "setting": "CD8^+ TILs", "value": "increased the frequency"}, {"measurement": "Tregs within the tumor", "setting": "Tregs", "value": "selectively depleted Tregs"}, {"measurement": "hair growth and weight loss", "setting": "[2]", "value": "delayed hair growth in the abdomen and slighted weight loss"}]}]}
